Source: ChEMBL document CHEMBL1201862, “PubChem BioAssay data set” (2004)
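Each compound was tested at five concentrations against cells in 96-well plates for 48 hours. Here, GI50 denotes the concentration required for 50% inhibition of growth.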 Calls of active or inactive are those of the source. No stated cut-off is given here; in the data, active = GI50 up to about 1.1 µM and inactive = higher.

Legend:
Experiment in all cases: DTP human tumour cell line panel, 48 h
[1] = tested on: EKVX
[2] = tested on: SNB-19
[3] = tested on: HOP-92
[4] = tested on: MCF7
[5] = tested on: MOLT-4
[6] = tested on: NCI-H23
[7] = tested on: 786-0
[8] = tested on: UO-31
[9] = tested on: COLO 205
[10] = tested on: SR
[11] = tested on: MDA-MB-231
[12] = tested on: Malme-3M
[13] = tested on: RPMI-8226
[14] = tested on: UACC-62
[15] = tested on: K562
[16] = tested on: SK-MEL-28
[17] = tested on: A549
[18] = tested on: HT-29
[19] = tested on: U-251
[20] = tested on: BT-549

Measured: GI50

N=C(N)SC(c1ccccc1)c1ccccc1
inactive: [1] 15 µM | [2] 28.1 µM | [3] 6.87 µM | [4] 15.4 µM | [5] 15.7 µM | [6] 13 µM | [7] 12.6 µM | [8] 11.2 µM | [9] 21.8 µM | [10] 24 µM | [11] 15.2 µM | [12] 18.6 µM | [13] 10.2 µM | [14] 16 µM | [15] 22.4 µM | [16] 4.84 µM | [17] 25.2 µM | [18] 13.3 µM | [19] 15.3 µM | [20] 17.6 µM

CCOC(=O)c1c(N)sc2c1C(C(=O)OCC)CC2 (stereo not given)
inactive: [1] > 100 µM | [2] > 100 µM | [3] > 100 µM | [4] > 100 µM | [5] 35.6 µM | [6] > 100 µM | [7] > 100 µM | [8] 62.4 µM | [9] > 100 µM | [10] 40 µM | [11] 76.7 µM | [12] 74.1 µM | [13] 45.3 µM | [14] 91.4 µM | [15] 46.5 µM | [16] > 100 µM | [17] > 100 µM | [18] > 100 µM | [19] 73.3 µM | [20] 72.3 µM

CCc1[nH]nc(C(N)=O)c1/N=N/N(C)C
inactive: [1] 57.5 µM | [2] > 100 µM | [3] 36.4 µM | [4] 30.9 µM | [5] 6.46 µM | [6] 54.1 µM | [7] 89.7 µM | [8] 2.58 µM | [9] 98.9 µM | [10] 10.1 µM | [11] > 100 µM | [12] 78.3 µM | [13] 81.5 µM | [14] 34.4 µM | [15] 1.13 µM | [16] > 100 µM | [17] 43.5 µM | [18] > 100 µM | [19] 48.3 µM | [20] 21.8 µM

O=C1Cc2c(-c3cccs3)cc(-c3ccccc3)nc2-c2ccccc2N1
inactive: [1] 33.7 µM | [2] 47.9 µM | [3] > 100 µM | [4] 96.8 µM | [5] > 100 µM | [6] > 100 µM | [7] 21.9 µM | [8] > 100 µM | [9] 43.4 µM | [10] > 100 µM | [11] 9.48 µM | [12] 9.95 µM | [13] > 100 µM | [14] > 100 µM | [15] > 100 µM | [16] > 100 µM | [17] 93.1 µM | [18] 10.8 µM | [19] > 10 µM | [20] > 100 µM

Cc1cc2c(cc1C)[n+]([O-])c(C(=O)/C=C/c1ccccc1[N+](=O)[O-])c(C)[n+]2[O-]
inactive: [1] 58.2 µM | [2] 30.3 µM | [3] 34.4 µM | [4] > 46.5 µM | [5] > 100 µM | [6] 48.5 µM | [7] 33 µM | [8] 99.5 µM | [9] 99.3 µM | [10] 55.6 µM | [11] > 65.5 µM | [12] 57 µM | [13] > 73.3 µM | [14] 40 µM | [15] > 100 µM | [16] 71.4 µM | [17] > 80.9 µM | [18] > 92.3 µM | [19] 32.1 µM | [20] > 81.8 µM

COc1ccc2c(c1)C(=O)CC(N)C2 (stereo not given)
inactive: [1] 57 µM | [2] > 100 µM | [3] > 100 µM | [4] > 100 µM | [5] 19.5 µM | [6] > 100 µM | [7] > 100 µM | [8] 40.6 µM | [9] > 100 µM | [10] 55.7 µM | [11] > 100 µM | [12] > 100 µM | [13] > 100 µM | [14] 68.5 µM | [15] > 100 µM | [16] > 100 µM | [17] > 100 µM | [18] > 100 µM | [19] > 100 µM | [20] > 100 µM

O=C(c1ccco1)N1CCN(C(=O)c2ccco2)C1=S
inactive: [1] 16.1 µM | [2] 24.4 µM | [3] 7.23 µM | [4] 2.99 µM | [5] 1.42 µM | [6] 18.4 µM | [7] 3.28 µM | [8] 3.68 µM | [9] 6.81 µM | [10] 1.79 µM | [11] 11.6 µM | [12] 6.07 µM | [13] 2.02 µM | [14] 6.34 µM | [15] 1.87 µM | [16] 5.87 µM | [17] 7.74 µM | [18] 8.05 µM | [19] 10 µM | [20] 8.47 µM
